# Test results taken from US10722496B2, “2-iminobiotin for use in the treatment of brain cell injury” (Neurophyxia B.V., priority 2015, dated 2020).
# What was measured:
# [1] = test system: 4VO rat model; experiment: Histology, living neurons in CA1 region of hippocampus after 4VO; format: in vivo; details: 33 days after insult
# Protocol: The rats were anesthetized using ketamine (90 mg/kg) and xylazine sodium ([…]), as described earlier (Meilin et al., 2014). The first cervical vertebrata was exposed and the vertebral arteries were permanently occluded by electrocauterization. The common carotid arteries were isolated through a ventral midline neck incision and lifted using a 4.0 silk suture ligature, placed around them.
# Twenty-four hours post vertebral arterial occlusion, the animals were reanesthetized using isoflurane. The common carotid arteries were exposed and occluded using microaneurysm clips for 15 minutes. After removing the clips reperfusion occurred. The skin of the incision at the neck was sutured using 4-0 silk suture. During the operation animal's core temperature was monitored using a rectal probe (Model 400; YSI Inc., Yellow Springs, Ohio, USA) connected to a thermometer (Model 8402-00; Cole-Parmer Instrument Co. Ltd, London, UK). The ischemic insult was initiated when a rectal temperature of 37-38° C. was achieved, and this temperature was maintained throughout the procedure using a heating mattress.
# During the acclimatization period rats were randomly assigned to experimental groups. The animals were subjected to 4VO per cage or one rat per cage was subjected to HI. Rats received either vehicle (normal saline at pH 3.8-4.0) or 2-IB (1.1 mg/kg, 3.3 mg/kg, 10 mg/kg and 30 mg/kg dissolved in 5 ml/kg normal saline at pH 3.8-4.0). Each dosing group was kept in separate cages to avoid cross-contamination by consuming stools during the study period. The experimental groups were as follows.
# Rats were sacrificed at 33 days after the insult with an overdose of pentobarbital sodium (100 mg/kg i.p.). Histological analysis was performed in at least 9 rats for each group. The brains of the other 3 rats per group were snap frozen in liquid nitrogen and were stored for future analysis. The brain was perfused via the left ventricle with heparinised normal saline to remove the excess of blood from the brain. Afterwards the brain was perfused with 4% paraformaldehyde phosphate-buffered saline. The whole brain was removed and immersed in formaldehyde for at least another 72 hours. Brains were embedded in paraffin. Coronal sections ([…]) were cut at approximately 3.3 mm from the bregma and stained with hematoxylin-eosin. Sections were scored in a blinded way for living neurons in the right and left part of the CA1 region of the hippocampus, the most damaged area in this model of global ischemia. This was also considered a secondary outcome parameter.
# [2] = test system: IMR-32 cells; experiment: Nitrate/nitrite Griess assay in culture media; format: cell-based, human; details: data not shown
# Protocol: (§1) In vitro hypoxia was induced in the cell cultures by using our recently described system with minor modifications (Huang et al., 2013b; Weber et al., 2015; Zitta et al., 2010). Enzyme stock solutions (100×) of catalase and glucose oxidase (both from Sigma-Aldrich) were prepared in cell culture medium (DMEM/F12, 1% FCS; final concentration: 120 U/ml and 2 U/ml respectively; Sigma-Aldrich) leading to a decrease of partial pressure of oxygen (pO2) below 10 mmHg within 5 minutes. Hypoxic conditions were confirmed by using a tissue oxygen pressure monitor (LICOX® CMP Oxygen Catheter; Integra, Plainsboro, USA). After 7 hours of hypoxia, the cells were washed twice with PBS (PAA) and fresh normoxic medium supplemented with solvent (citrate buffer 1%) or 2-IB (10, 30, 50, 100 and 300 ng/mL) was added to the cells. Investigations of cell damage, metabolic activity, ROS, hydrogen peroxide, nitrite/nitrate production, erkl/2, akt and stat5 phosphorylation as well as cell stress protein expression were performed with cell culture media or cell protein (FIG. 1).
# Nitrate and nitrite concentrations were evaluated in culture media using a Griess colorimetric assay kit (Sigma-Aldrich) according to the manufacturer's instructions. Absorbance at 540 nm was measured in samples and standards using an ELISA reader (Tecan, Crailsheim, Germany).
# [3] = test system: cell stress associated proteins; experiment: Cell stress proteome profiler array; format: cell-based, human; details: for ADAMTS1 mean densitometric intensity / Bcl-2 mean densitometric intensity / CA IX mean densitometric intensity / COX-2 mean densitometric intensity / Cited 2 mean densitometric intensity / Cytochrome C mean densitometric intensity / Dkk-4 mean densitometric intensity / FABP-1 mean densitometric intensity / HIF1a mean densitometric intensity / HIF2a mean densitometric intensity / HSP60 mean densitometric intensity / HSP70 mean densitometric intensity / IDO mean densitometric intensity / NFkB1 mean densitometric intensity / PON1 mean densitometric intensity / PON2 mean densitometric intensity / PON3 mean densitometric intensity / PP53 mean densitometric intensity / SIRT2 mean densitometric intensity / SOD2 mean densitometric intensity / Thioredoxin-1 mean densitometric intensity / p21/CIP1 mean densitometric intensity / p27 mean densitometric intensity / pHSP-27 mean densitometric intensity / pJNK mean densitometric intensity / pp38a mean densitometric intensity: 2-IB (30 ng/ml)
# Protocol: as §1
# Proteome profiling was performed using commercially available cell stress proteome profiler arrays (R&D Systems, Minneapolis, USA) and the manufacturer's protocol provided with the assay kit. Equal amounts (50 μg) of protein from each experiment (N=4) were pooled and applied to the respective array membrane. Expression levels of 26 cell stress associated proteins were evaluated by densitometric analyses of the arrays using the ImageJ 1.410 software (ImageJ, NIH, USA).
# [4] = 30 ng/ml 2-IB after the hypoxic insult, of 26 proteins
compound,measurement,setting,value
"N=C1N[C@H]2[C@H](CS[C@H]2CCCCC(=O)O)N1 [2-IB, 2-iminobiotin]",surviving cells in the CA1 region,[1]; 1.1 mg/kg/dose s.c.,29±34
same,surviving cells in the CA1 region,[1]; 3.3 mg/kg/dose s.c.,71±61
same,surviving cells in the CA1 region,[1]; 10 mg/kg/dose s.c.,63±54
same,surviving cells in the CA1 region,[1]; 30 mg/kg/dose s.c.,50±51
same,nitrate and nitrite concentrations in culture media,[2],neither nitrate nor nitrite concentrations were influenced by hypoxia or by 2-IB
same,cell stress associated proteins down regulated after hypoxia,[3]; [4],3/26
same,cell stress associated proteins unchanged after hypoxia,[3]; [4],4/26
same,cell stress associated proteins up regulated after hypoxia,[3]; [4],19/26
same,investigated stress proteins up regulated,[3]; 30 ng/ml 2-IB for 4 hours post hypoxia,73%
same,ADAMTS1 mean densitometric intensity,[3]; Hypoxia,9.23
same,Bcl-2 mean densitometric intensity,[3]; Hypoxia,42.62
same,CA IX mean densitometric intensity,[3]; Hypoxia,23.02
same,COX-2 mean densitometric intensity,[3]; Hypoxia,13.79
same,Cited 2 mean densitometric intensity,[3]; Hypoxia,67.91
same,Cytochrome C mean densitometric intensity,[3]; Hypoxia,108.04
same,Dkk-4 mean densitometric intensity,[3]; Hypoxia,3.47
same,FABP-1 mean densitometric intensity,[3]; Hypoxia,9.02
same,HIF1a mean densitometric intensity,[3]; Hypoxia,47.93
same,HIF2a mean densitometric intensity,[3]; Hypoxia,0.00
same,HSP60 mean densitometric intensity,[3]; Hypoxia,150.57
same,HSP70 mean densitometric intensity,[3]; Hypoxia,170.82
same,IDO mean densitometric intensity,[3]; Hypoxia,0.00
same,NFkB1 mean densitometric intensity,[3]; Hypoxia,8.63
same,PON1 mean densitometric intensity,[3]; Hypoxia,0.00
same,PON2 mean densitometric intensity,[3]; Hypoxia,20.16
same,PON3 mean densitometric intensity,[3]; Hypoxia,0.00
same,PP53 mean densitometric intensity,[3]; Hypoxia,11.92
same,SIRT2 mean densitometric intensity,[3]; Hypoxia,171.53
same,SOD2 mean densitometric intensity,[3]; Hypoxia,203.11
same,Thioredoxin-1 mean densitometric intensity,[3]; Hypoxia,147.57
same,p21/CIP1 mean densitometric intensity,[3]; Hypoxia,51.41
same,p27 mean densitometric intensity,[3]; Hypoxia,4.67
same,pHSP-27 mean densitometric intensity,[3]; Hypoxia,1.65
same,pJNK mean densitometric intensity,[3]; Hypoxia,48.63
same,pp38a mean densitometric intensity,[3]; Hypoxia,3.52
same,ADAMTS1 mean densitometric intensity,[3]; Normoxia,10.32
same,Bcl-2 mean densitometric intensity,[3]; Normoxia,32.27
same,CA IX mean densitometric intensity,[3]; Normoxia,0.00
same,COX-2 mean densitometric intensity,[3]; Normoxia,8.91
same,Cited 2 mean densitometric intensity,[3]; Normoxia,44.07
same,Cytochrome C mean densitometric intensity,[3]; Normoxia,84.87
same,Dkk-4 mean densitometric intensity,[3]; Normoxia,2.81
same,FABP-1 mean densitometric intensity,[3]; Normoxia,6.67
same,HIF1a mean densitometric intensity,[3]; Normoxia,62.15
same,HIF2a mean densitometric intensity,[3]; Normoxia,0.00
same,HSP60 mean densitometric intensity,[3]; Normoxia,121.73
same,HSP70 mean densitometric intensity,[3]; Normoxia,139.78
same,IDO mean densitometric intensity,[3]; Normoxia,0.00
same,NFkB1 mean densitometric intensity,[3]; Normoxia,6.09
same,PON1 mean densitometric intensity,[3]; Normoxia,0.00
same,PON2 mean densitometric intensity,[3]; Normoxia,8.83
same,PON3 mean densitometric intensity,[3]; Normoxia,0.00
same,PP53 mean densitometric intensity,[3]; Normoxia,8.64
same,SIRT2 mean densitometric intensity,[3]; Normoxia,148.80
same,SOD2 mean densitometric intensity,[3]; Normoxia,181.53
same,Thioredoxin-1 mean densitometric intensity,[3]; Normoxia,126.34
same,p21/CIP1 mean densitometric intensity,[3]; Normoxia,43.13
same,p27 mean densitometric intensity,[3]; Normoxia,4.51
same,pHSP-27 mean densitometric intensity,[3]; Normoxia,0.79
same,pJNK mean densitometric intensity,[3]; Normoxia,39.24
same,pp38a mean densitometric intensity,[3]; Normoxia,4.72
